From ChEMBL document CHEMBL1201862, “PubChem BioAssay data set” (2004)
Where “and” joins values, the source holds several entries; their conditions need not be identical. Equal values may be shown once. Calls of active or inactive are those of the source.

Legend:
Cytochrome P450 2D6 = Cytochrome P450 2D6 (Homo sapiens, UniProt P10635);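 also: CYP2D6 member of a cytochrome P450 panel assay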
Cytochrome P450 3A4 = Cytochrome P450 3A4 (Homo sapiens, UniProt P08684);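 also: CYP3A4 tested as one member of a cytochrome P450 panel screen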
Cytochrome P450 3A4, sequence (P08684 whole entry): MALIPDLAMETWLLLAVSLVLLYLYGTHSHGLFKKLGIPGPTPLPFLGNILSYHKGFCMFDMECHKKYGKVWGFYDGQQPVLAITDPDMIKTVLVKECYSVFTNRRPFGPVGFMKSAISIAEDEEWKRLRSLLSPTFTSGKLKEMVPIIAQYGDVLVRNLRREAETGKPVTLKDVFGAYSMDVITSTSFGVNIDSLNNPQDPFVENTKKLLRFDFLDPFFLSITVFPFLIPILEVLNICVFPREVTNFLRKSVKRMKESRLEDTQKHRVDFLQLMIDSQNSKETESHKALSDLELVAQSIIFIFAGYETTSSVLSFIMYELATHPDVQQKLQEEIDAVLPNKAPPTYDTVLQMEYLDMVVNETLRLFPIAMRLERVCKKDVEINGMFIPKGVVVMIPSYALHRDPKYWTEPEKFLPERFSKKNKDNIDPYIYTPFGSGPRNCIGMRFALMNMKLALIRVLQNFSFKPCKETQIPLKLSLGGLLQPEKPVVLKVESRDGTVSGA

Cytochrome P450 2C9 = Cytochrome P450 2C9 (Homo sapiens, UniProt P11712)
Cytochrome P450 2C9, sequence (P11712 whole entry): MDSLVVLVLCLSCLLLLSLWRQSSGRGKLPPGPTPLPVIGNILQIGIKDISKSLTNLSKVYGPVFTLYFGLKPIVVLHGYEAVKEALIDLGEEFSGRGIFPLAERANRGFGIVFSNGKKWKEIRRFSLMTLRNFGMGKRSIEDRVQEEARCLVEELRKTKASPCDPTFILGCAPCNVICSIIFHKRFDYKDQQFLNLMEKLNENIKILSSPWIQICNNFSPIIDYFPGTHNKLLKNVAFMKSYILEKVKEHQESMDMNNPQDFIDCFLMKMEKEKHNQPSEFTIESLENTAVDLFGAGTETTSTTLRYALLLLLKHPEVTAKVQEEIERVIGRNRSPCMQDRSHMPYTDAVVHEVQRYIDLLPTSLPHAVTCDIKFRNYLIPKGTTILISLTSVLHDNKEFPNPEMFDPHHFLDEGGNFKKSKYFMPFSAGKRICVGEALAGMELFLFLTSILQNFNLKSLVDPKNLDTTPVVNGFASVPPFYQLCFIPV

H9c2 = test: cells; type: functional, cell-based; conditions: Rattus norvegicus, H9c2, Myocardium;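 also: confirmatory concentration-response retest of ultra-high-throughput screening hits for modulation of myocardial damage; cell death induced by hydrogen peroxide oxidative stress; compound pretreatment for 60 min then peroxide exposure for 2 h; potency is for protecting the cells against peroxide damage rather than for killing them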
Cytochrome P450 1A2 = biological target: T1, Cytochrome P450 1A2 (Homo sapiens, UniProt P05177);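 also: PubChem cytochrome P450 panel assay, CYP1A2 panel member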
T1 sequence (P05177 whole entry): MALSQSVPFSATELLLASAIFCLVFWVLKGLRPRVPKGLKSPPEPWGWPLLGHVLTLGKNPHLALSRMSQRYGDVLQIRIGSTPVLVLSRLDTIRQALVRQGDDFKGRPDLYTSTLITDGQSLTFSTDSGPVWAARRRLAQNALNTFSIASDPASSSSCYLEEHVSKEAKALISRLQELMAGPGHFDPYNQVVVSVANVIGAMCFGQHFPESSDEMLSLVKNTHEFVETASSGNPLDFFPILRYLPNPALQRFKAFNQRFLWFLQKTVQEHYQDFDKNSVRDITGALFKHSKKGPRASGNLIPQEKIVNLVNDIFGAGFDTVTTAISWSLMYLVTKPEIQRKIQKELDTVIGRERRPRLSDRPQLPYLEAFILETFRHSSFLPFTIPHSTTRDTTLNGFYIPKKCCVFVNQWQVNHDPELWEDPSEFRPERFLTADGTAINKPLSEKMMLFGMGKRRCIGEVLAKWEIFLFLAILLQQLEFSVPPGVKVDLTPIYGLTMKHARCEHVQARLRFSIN

[1] = biological target: T2, Heat shock factor protein 1 (Mus musculus, UniProt P38532); test: enhancement of HSF1-driven luciferase signal – cell-based, NIH3T3, luminescence, dose retest, confirmation (AID 435004); type: functional;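 also: stress induced by proteasome inhibitor MG132 added 30 min after compound; luciferase reporter driven by HSF1 response element in NIH3T3 cells; actives raise luminescence as potentiators of the MG132 stress response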
T2 sequence (P38532 whole entry): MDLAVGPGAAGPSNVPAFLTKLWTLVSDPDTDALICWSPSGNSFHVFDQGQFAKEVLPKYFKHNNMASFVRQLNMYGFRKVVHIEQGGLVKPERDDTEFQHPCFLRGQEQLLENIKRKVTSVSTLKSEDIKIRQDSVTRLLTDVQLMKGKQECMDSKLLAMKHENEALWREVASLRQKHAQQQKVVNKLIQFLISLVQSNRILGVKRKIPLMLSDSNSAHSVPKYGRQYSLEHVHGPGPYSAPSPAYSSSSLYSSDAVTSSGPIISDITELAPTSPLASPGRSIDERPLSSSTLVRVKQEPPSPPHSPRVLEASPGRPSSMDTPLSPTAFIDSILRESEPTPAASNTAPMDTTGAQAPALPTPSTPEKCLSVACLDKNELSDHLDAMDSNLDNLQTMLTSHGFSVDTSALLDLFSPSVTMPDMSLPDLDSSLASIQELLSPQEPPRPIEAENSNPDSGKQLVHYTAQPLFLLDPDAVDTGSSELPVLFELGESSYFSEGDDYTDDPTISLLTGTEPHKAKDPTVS

Cytochrome P450 2C19 = Cytochrome P450 2C19 (Homo sapiens, UniProt P33261); test: Cytochrome panel assay with activity outcomes. Panel member name: p450-cyp2c19 Compounds with AC50 equal or less than 10 uM are considered active; type: functional; conditions: read-out: AC50
Cytochrome P450 2C19, sequence (P33261 whole entry): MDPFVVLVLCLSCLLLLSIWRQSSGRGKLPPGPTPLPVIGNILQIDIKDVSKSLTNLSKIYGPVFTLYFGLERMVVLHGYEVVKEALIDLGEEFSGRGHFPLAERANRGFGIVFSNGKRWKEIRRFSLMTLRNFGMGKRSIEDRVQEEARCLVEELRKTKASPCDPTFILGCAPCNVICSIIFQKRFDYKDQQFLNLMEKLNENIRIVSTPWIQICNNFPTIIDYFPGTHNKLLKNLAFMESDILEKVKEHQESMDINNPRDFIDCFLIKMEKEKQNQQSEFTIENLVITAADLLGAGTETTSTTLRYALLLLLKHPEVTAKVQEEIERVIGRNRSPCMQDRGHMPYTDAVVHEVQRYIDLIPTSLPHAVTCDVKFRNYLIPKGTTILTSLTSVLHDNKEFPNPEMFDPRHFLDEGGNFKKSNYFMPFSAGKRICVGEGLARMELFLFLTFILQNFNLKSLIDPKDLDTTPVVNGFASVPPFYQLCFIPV

[2] = biological target: T3, Microphthalmia-associated transcription factor (Homo sapiens, UniProt O75030); test: reducers of TRPM1 reporter luminescence, concentration series – cell-based, SK-MEL-5, cherry-picked, set 3, MITF inhibitor project, dose response (AID 493073); type: functional;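 also: SK-MEL-5 melanoma cells with luciferase driven by the MITF target TRPM1 promoter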
T3 sequence (O75030 whole entry): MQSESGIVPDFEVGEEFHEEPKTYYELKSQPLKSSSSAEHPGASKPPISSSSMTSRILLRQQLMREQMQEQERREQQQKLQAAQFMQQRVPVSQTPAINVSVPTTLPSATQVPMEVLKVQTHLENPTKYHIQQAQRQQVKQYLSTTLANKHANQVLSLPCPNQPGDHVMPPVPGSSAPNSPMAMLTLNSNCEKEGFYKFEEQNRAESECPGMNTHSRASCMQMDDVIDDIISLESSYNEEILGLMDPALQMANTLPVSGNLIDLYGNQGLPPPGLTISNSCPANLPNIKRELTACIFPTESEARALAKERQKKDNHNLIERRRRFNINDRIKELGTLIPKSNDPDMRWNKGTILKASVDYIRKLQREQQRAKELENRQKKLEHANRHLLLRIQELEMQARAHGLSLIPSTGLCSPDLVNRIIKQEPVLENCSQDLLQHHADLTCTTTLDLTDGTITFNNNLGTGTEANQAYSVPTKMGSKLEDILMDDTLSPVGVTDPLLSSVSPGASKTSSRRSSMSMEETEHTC

[3] = biological target: FAD-linked sulfhydryl oxidase ALR (Homo sapiens, UniProt P55789); test: ALR-catalysed DTT oxidation blockers – biochemical, H2O2 detection, luminescence, cherry-pick, dose response (AID 493248)
FAD-linked sulfhydryl oxidase ALR, sequence (P55789 whole entry): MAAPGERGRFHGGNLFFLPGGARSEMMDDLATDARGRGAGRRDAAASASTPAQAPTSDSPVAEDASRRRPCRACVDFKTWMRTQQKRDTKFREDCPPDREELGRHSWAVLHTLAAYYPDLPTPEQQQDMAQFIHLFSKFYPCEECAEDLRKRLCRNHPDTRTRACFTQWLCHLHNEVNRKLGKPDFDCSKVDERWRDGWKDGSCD

[4] = biological target: Luciferin 4-monooxygenase (Photinus pyralis, UniProt P08659); test: inhibition of purified Photinus pyralis luciferase – biochemical, luminescence, dose response (AID 1891)
Luciferin 4-monooxygenase, sequence (P08659 whole entry): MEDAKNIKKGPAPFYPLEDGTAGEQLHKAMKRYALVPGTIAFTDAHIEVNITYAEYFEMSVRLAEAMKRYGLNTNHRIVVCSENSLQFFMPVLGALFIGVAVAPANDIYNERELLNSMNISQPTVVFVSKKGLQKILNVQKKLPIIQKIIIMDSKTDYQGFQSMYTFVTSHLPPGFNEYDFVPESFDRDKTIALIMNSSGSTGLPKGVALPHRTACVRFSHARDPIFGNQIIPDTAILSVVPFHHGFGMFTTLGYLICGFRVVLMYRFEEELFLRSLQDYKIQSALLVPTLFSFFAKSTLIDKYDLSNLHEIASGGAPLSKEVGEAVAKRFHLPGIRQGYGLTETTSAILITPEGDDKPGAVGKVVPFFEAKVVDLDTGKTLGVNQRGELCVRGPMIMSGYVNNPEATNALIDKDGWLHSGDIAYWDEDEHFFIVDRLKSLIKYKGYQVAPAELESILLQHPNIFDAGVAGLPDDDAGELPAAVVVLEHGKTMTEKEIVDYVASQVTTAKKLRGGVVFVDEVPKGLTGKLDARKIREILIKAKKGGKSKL

[5] = Luminescence Cell-Based Dose Confirmation HTS to Identify Inhibitors of Platelet Dense Granule Release. [Related pubchem assays: 1663 (Primary HTS), 1678 (Summary of Project)]; type: functional

Cytochrome P450 2D6, sequence (P10635 whole entry): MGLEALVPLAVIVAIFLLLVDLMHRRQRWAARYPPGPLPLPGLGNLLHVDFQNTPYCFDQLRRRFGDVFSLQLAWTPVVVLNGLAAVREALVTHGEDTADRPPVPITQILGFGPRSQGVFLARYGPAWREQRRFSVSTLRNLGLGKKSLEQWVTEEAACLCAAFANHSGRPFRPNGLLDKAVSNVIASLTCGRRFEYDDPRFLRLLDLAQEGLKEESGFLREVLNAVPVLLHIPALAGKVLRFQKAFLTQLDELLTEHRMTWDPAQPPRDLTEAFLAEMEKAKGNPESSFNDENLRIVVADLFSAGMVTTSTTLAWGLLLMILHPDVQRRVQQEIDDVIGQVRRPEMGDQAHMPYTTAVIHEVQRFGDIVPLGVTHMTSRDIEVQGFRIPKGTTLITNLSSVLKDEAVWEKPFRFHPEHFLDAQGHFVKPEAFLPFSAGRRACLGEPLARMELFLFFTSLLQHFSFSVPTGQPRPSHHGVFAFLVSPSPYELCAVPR

With `COc1ccc(CCN(C)CCc2ccc(OC)c(OC)c2)cc1OC` the AC50 (Cytochrome P450 2D6) was 31.6 µM (inconclusive) and 12.6 µM (inconclusive) and the AC50 (Cytochrome P450 3A4) was 15.8 µM (inconclusive) and 10 µM (inconclusive).

For `COc1cccc(C(=O)C2=C(O)C(=O)N(c3ccccn3)C2c2ccc(OC)c(OC)c2)c1` (stereo not given), the AC50 (Cytochrome P450 3A4) was 17.8 µM (inconclusive) and the AC50 (Cytochrome P450 2C9) was 15.8 µM (inconclusive).

For `COc1ccc(C(=O)COC(=O)Cn2[nH]c(=O)c3ccccc3c2=O)c(OC)c1`, the IC50 (H9c2) was 17.5 µM (active).

In the case of `O=C(N/N=C/c1cn(-c2ccccc2)nc1-c1cccnc1)c1ccccc1`, the IC50 (H9c2) is reported as > 79 µM (inactive).

With `O=C1CN=C(Nc2ccccc2)N1Cc1cccs1` the AC50 (Cytochrome P450 2D6) was 25.1 µM (inconclusive).

With `COc1ccc(Oc2ncc3nc(-c4ccc(OC)cc4)c(=O)n(Cc4cccs4)c3n2)cc1` the AC50 (Cytochrome P450 1A2) was 15.8 µM (inconclusive), the AC50 (Cytochrome P450 3A4) was 3.16 µM (inconclusive) and the AC50 (Cytochrome P450 2C9) was 3.16 µM (inconclusive).

For `Brc1ccc(CSc2ccc3nnc(-c4cccnc4)n3n2)cc1`, the IC50 (H9c2) was > 79 µM (inactive).

In the case of `CNC(=O)NC(=S)NC(=O)c1ccc(OC)cc1`, the AC50 (Cytochrome P450 3A4) is reported as 31.6 µM (inconclusive) and the AC50 (Cytochrome P450 2C9) is reported as 31.6 µM (inconclusive).

With `O=C(Nc1ccc(Cl)cc1)NC1CCCCC1` the AC50 (Cytochrome P450 2C9) was 12.6 µM (inconclusive).

With `CC1CCCC(C)N1C(=O)COC(=O)c1nnc(O)c2ccccc12` (stereo not given) the IC50 (H9c2) was > 79 µM (inactive).

With `COCC(=O)N1CCC2(CC1)CN(C(=O)Nc1ccccc1)C2` the AC50 (Cytochrome P450 2D6) was 39.8 µM (inconclusive).

For `CCCCc1c(O)n(-c2ccc(OC)cc2)c(SCC(=O)N2CCOCC2)nc1=O`, the EC50 [1] was > 260 µM (inactive).

For `C[N+](C)(C)CC[N+]1(C)Cc2c(Cl)c(Cl)c(Cl)c(Cl)c2C1` [CHLORISONDAMINE], the AC50 (Cytochrome P450 2C19) was 5.01 µM (inconclusive) and the AC50 (Cytochrome P450 2D6) was 15.8 µM (inconclusive).

In the case of `COC(=O)c1cnc2c(c(C)nn2C)c1OC`, the EC50 [1] is reported as > 260 µM (inactive).

With `Fc1cccc(-c2nnn3c2nc(Cl)c2ccccc23)c1` the EC50 [1] was 13.6 µM (inconclusive).

With `O=C1NC2c3c(I)sc(I)c3C(=O)C2O1` (stereo not given) the AC50 [2] was 15.5 µM (active).

In the case of `O=C(c1ccncc1)N1CCC2(CCCN(c3ccccn3)C2)CC1`, the AC50 (Cytochrome P450 2D6) is reported as 25.1 µM (inconclusive).

With `O=C(OCC(=O)N1CCCCCC1)c1nnc(O)c2ccccc12` the IC50 (H9c2) was > 79 µM (inactive).

In the case of `N#CCC(CNc1ncc(C(F)(F)F)cc1Cl)OC(=O)c1ccc(Cl)cc1Cl` (stereo not given), the EC50 [1] is reported as 42.6 µM (active).

With `COc1ccccc1C(=O)COC(=O)Cn1[nH]c(=O)c2ccccc2c1=O` the IC50 (H9c2) was 18.5 µM (active).

With `CN(CCCNC(=O)C1CCC(=O)N1Cc1ccccc1Cl)c1ccccc1` (stereo not given) the AC50 [3] was 0.398 µM (active) and the AC50 (Cytochrome P450 2D6) was 8.91 µM (inconclusive).

With `O=C(Cc1c(O)c2ccccc2oc1=O)c1ccc(C(F)(F)F)cc1` the EC50 [1] was > 260 µM (inactive).

In the case of `Cc1c(C(=O)NN2CCOCC2)nn(-c2ccc(Cl)cc2Cl)c1-c1ccc(I)cc1`, the AC50 (Cytochrome P450 2D6) is reported as 12.6 µM (inconclusive) and the AC50 (Cytochrome P450 1A2) is reported as 31.6 µM (inconclusive).

In the case of `c1ccc(N2CCCC3(CCNCC3)C2)nc1`, the AC50 (Cytochrome P450 2C19) is reported as 20 µM (inconclusive), the AC50 (Cytochrome P450 1A2) is reported as 25.1 µM (inconclusive) and the AC50 (Cytochrome P450 3A4) is reported as 15.8 µM (inconclusive). For the same compound, the AC50 (Cytochrome P450 2C9) was 39.8 µM (inconclusive).

For `COC(=O)[C@@]1(Cc2ccc(OC)cc2)[C@H]2c3cc(C(=O)N(C)C)n(Cc4c(CO)ncc(C)c4O)c3C[C@H]2CN1C(=O)c1ccccc1`, the AC50 (Cytochrome P450 2C19) was 31.6 µM (inconclusive) and the AC50 (Cytochrome P450 2D6) was 20 µM (inconclusive).

For `Cc1cc2[nH]c(=O)c3ccccc3n2n1`, the IC50 (H9c2) was > 79 µM (inactive).

With `Cc1nc2nc(-c3ccc(F)cc3)cn2nc1C` the EC50 [1] was > 260 µM (inconclusive).

With `CC(=O)NC1C(OCCOc2ccc(Cl)cc2Cl)OC(COC(C)=O)C(OC(C)=O)C1OC(C)=O` (stereo not given) the AC50 (Cytochrome P450 2C19) was 15.8 µM (inconclusive) and the AC50 (Cytochrome P450 2C9) was 4.47 µM (inconclusive).

In the case of `CCC/C=C(\CCC)C(NP(=O)(c1ccccc1)c1ccccc1)c1ccc(C(F)(F)F)cc1` (stereo not given), the AC50 (Cytochrome P450 2C19) is reported as 39.8 µM (inconclusive) and the AC50 (Cytochrome P450 2C9) is reported as 12.6 µM (inconclusive).

With `O=C(O)CC/C=C\C[C@@H]1CO[C@H](c2ccccc2Cl)O[C@@H]1c1ccccc1O` the AC50 (Cytochrome P450 2D6) was 20 µM (inconclusive), the AC50 (Cytochrome P450 1A2) was 39.8 µM (inconclusive) and the AC50 (Cytochrome P450 3A4) was 15.8 µM (inconclusive).

With `COc1cccc(Nc2nc3ccccc3n3cnnc23)c1` the IC50 (H9c2) was > 79 µM (inactive).

With `CCCC[C@@H]1C[C@H]1C(NC(=O)c1ccccc1)c1ccc(Cl)cc1` (stereo not given in full) the AC50 (Cytochrome P450 2D6) was 20 µM (inconclusive) and the AC50 (Cytochrome P450 2C9) was 2.51 µM (inconclusive).

For `COc1ccccc1CNc1cc(-c2ccc(C(=O)N(C)C)cc2)ncn1`, the AC50 (Cytochrome P450 2D6) was 12.6 µM (inconclusive).

For `CCC(C)C(=O)Nc1ncc2c(n1)CC(c1cccs1)CC2=O` (stereo not given), the EC50 [4] was > 112 µM (not active), the EC50 [5] was > 112 µM (not active) and the EC50 [1] was > 260 µM (inactive).

For `COc1ccc(S(=O)(=O)N/N=c2\oc3c(OC)cccc3cc2S(=O)(=O)c2ccc(C)cc2)cc1OC`, the EC50 [1] was 67.1 µM (active).

For `CC(=O)c1cc(C#N)c(Oc2ccc(F)cc2)nc1C`, the AC50 (Cytochrome P450 2C19) was 10 µM (inconclusive) and the AC50 (Cytochrome P450 2C9) was 3.98 µM (inconclusive).

In the case of `Fc1cccc(F)c1CN1CCN(c2ccc(Cl)cc2)CC1`, the EC50 [1] is reported as > 260 µM (inactive).

In the case of `Cc1ccc(NC(=O)c2sc3ncn(CC(=O)N4CCOCC4)c(=O)c3c2C)c(Br)c1`, the EC50 [1] is reported as > 260 µM (inactive).

In the case of `COc1cc(CNn2nnnc2N)ccc1OCc1c(Cl)cccc1Cl`, the AC50 (Cytochrome P450 2C9) is reported as 25.1 µM (inconclusive).

In the case of `CCn1c(O)c(/C=N/N=C2CCCC2)c2ccc(C3=NNC(=O)CC3)cc21`, the IC50 (H9c2) is reported as > 79 µM (inactive) and the AC50 (Cytochrome P450 3A4) is reported as 7.08 µM (inconclusive).

For `CN(C)c1ncc2ncc(=O)n(Cc3ccc(F)cc3)c2n1`, the AC50 (Cytochrome P450 2D6) was 12.6 µM (inconclusive).

For `COc1cccc(Cn2c(=O)cnc3cncnc32)c1`, the AC50 (Cytochrome P450 2C19) was 25.1 µM (inconclusive), the AC50 (Cytochrome P450 2D6) was 25.1 µM (inconclusive) and the AC50 (Cytochrome P450 3A4) was 20 µM (inconclusive).

In the case of `COc1cccc(Cn2c(=O)c(-c3ccc(F)cc3)nc3cnc(N4CCNCC4)nc32)c1`, the AC50 (Cytochrome P450 2C19) is reported as 39.8 µM (inconclusive), the AC50 (Cytochrome P450 2D6) is reported as 25.1 µM (inconclusive) and the AC50 (Cytochrome P450 1A2) is reported as 25.1 µM (inconclusive).

With `COc1ccc(S(=O)(=O)N(C)c2ccc(C(=O)NCc3ccccn3)cc2)cc1` the EC50 [1] was > 260 µM (inactive).

In the case of `O=C(OCc1cc(=O)n2ccsc2n1)c1ccc(O)cc1O`, the IC50 (H9c2) is reported as > 79 µM (inactive).
